Results taken from patent US20130209487A1, “Treatment of Avian Species with Inhibitors of P110 Delta Signaling” (priority 2010, published 2013).
Entries after “also recorded” stand apart in the source; their conditions may differ.

Tests used:
[1] = tested on: influenza virus strain PR8; format: cell-based
[2] = tested on: H7N7 A/Equine/London/1416/73 influenza virus strain; set-up: species or system mice; conditions: mouse, in vivo

Question: What does the source list for `Cc1ccccc1-n1c(Cn2cnc3c(N)ncnc32)nc2cccc(C)c2c1=O` [IC87114]?
Answer: influenza virus replication [1]: inhibits influenza virus replication; viral mRNA production reduced compared to untreated cells [1]: ~25 fold; survival after lethal challenge [2]: increased survival; also recorded: protects mice lethally challenged with virulent influenza virus; survival of A549 cell (A549 cell): did not affect the survival
